Assay results reported in patent publication US6518012B1, “Method for regulating the expression of MHC antigens and CD40 by inhibitors of histone deacetylation” (Health Research, Inc., priority 1999, dated 2003).

How the values were obtained:
HLA-DRα mRNA = HLA-DRα mRNA by standard PCR and real-time PCR in human cell lines JAR and SK-N-MC; format: cell-based; settings: for fold increase in expression of DR: MC cells, real time PCR, 100 nM TSA 24 hr, NaBu 1 mM 48 hr, IFNγ any concentration or time point; for levels of mRNA for HLA-DRα (DR): SK-N-MC, RT-PCR, 100 nM TSA 24 hours, 1 mM NaBu 48 hours, IFNγ
CD40 mRNA = CD40 mRNA by real-time PCR in Colon 26 and J558; format: cell-based, mouse
Experimental: In order to obtain more quantitative information on fold changes in DR and CIITA after treatment with the deacetylase inhibitors, a real time fluorescence technique capable of quantitating low copy numbers of transcripts was carried out as follows. Oligonucleotide primers and TaqMan 5′-6-FAM and 3′-TAMRA-labeled probes were synthesized in the RPCI Biopolymer Facility. Primer and probe sequences are listed under Sequence Listing and also in FIG. 9. Sequences were designed using standard software (PrimerExpress software, PE Biosystems) except for human GAPDH.
Realtime PCR reactions contained TaqMan Universal PCR Master Mix (PE Biosystems), primers at 300 nM, and probes at optimal concentrations (150-225 nM depending on gene). Reactions were carried out on an ABI PRISM 7700 Sequence Detection System (PE Biosystems). Cycling conditions were 50° C. for 2 min, 95° C. for 10 min, then 60 cycles of 95° C. for 15 sec, 60° C. for 1 min. PCR samples were run in triplicate. The detection system and quantitative PCR was carried out as described by Williamson et al. (1995, Genet Res. 65:83-93). The threshold cycle number CT corresponded to the cycle number, at which the fluorescent emission reaches 10 standard deviations above the mean fluorescent emission, measured during the early ‘baseline’ cycles of the PCR. The CT values for triplicates were averaged and normalized to GAPDH levels. […] In such cases, in order to calculate a minimum fold change for other samples in the same group, the CT value was arbitrarily set at 40. […] Assuming reverse transcription efficiencies were approximately the same for each sample, relative amounts of mRNA using the comparative CT method. Fold changes in mRNA levels were calculated as 2^x where x=the difference between normalized CT values of the control and experimental samples.
This embodiment illustrates the effect of DAIs on costimulatory molecules. Because of the importance of costimulatory molecules in the cellular activation mechanism involving MHC complexes, the effect of DAIs on the expression of B7-1, B7-2 and CD40 genes was investigated by real-time PCR as well as RT-PCR. While no consistent changes in B7-1 and B7-2 were detected (data not shown), CD40 expression was enhanced by TSA in all three cell types (FIGS. 7A, B, C). MC cells constitutively expressed low levels of CD40 and IFNγ enhanced CD40 mRNA levels 5-fold while TSA elicited a 12-fold increase at 24 hours (FIG. 7A). […] GADPH mRNA remained essentially unchanged with both the primer sites used in RT-PCR and real-time PCR. The lack of induction of CD40 by IFNγ in J558 cells is consistent with the failure of IFNγ to activate other IFNγ inducible genes.

CD40 = assay: Cell surface CD40 by flow cytometry on Colon 26 and J558; format: cell-based, mouse
Experimental: To determine the effect of TSA on cell surface protein expression, the J558 cell line was subjected to flow cytometric analyses as follows. Flow cytometric analyses were conducted by standard methods using cells fixed with 1.0% paraformaldehyde and analyzed on the FACScan (Becton Dickinson). Cell cycle analyses were carried out by flow cytometry with PI staining of genomic DNA. Cells were fixed and permeablized in methanol, treated with RNaseA and analyzed for DNA content by determination of FL3-area on the FACScan. The FL3-area data were analyzed with the ModFit software for determination of the percent cells in each phase of the cell cycle. In some cases, fluorescein isothiocyanate (FITC)-conjugated antibody staining was conducted prior to PI treatment and surface staining was analyzed as a function of cell cycle phase. Apoptosis was analyzed by staining with annexin-V directly conjugated with either FITC or RPE and by sub-G0 analysis of DNA staining. […] Isotype controls were analyzed and, in each case, fell on or below the levels shown for control cells. […] Since all cells were positive for MHC class I expression, the number under the histogram represents -fold change of expression calculated from the mean channel-shift after treatment relative to untreated cells. […]

[1] = test system: MHC class II protein on the cell surface; assay: Cell surface MHC class II protein by flow cytometry on Colon 26 and J558; format: cell-based, mouse; settings: for expression of MHC class II protein on the cell surface: Colon 26 (50 nM TSA 48 hours) and J558 (25 nM TSA 24 hours), flow cytometry, IFNγ 100 U/ml same time
Experimental: To determine the effect of TSA on cell surface protein expression, the J558 cell line was subjected to flow cytometric analyses as follows. Flow cytometric analyses were conducted by standard methods using cells fixed with 1.0% paraformaldehyde and analyzed on the FACScan (Becton Dickinson). Cell cycle analyses were carried out by flow cytometry with PI staining of genomic DNA. Cells were fixed and permeablized in methanol, treated with RNaseA and analyzed for DNA content by determination of FL3-area on the FACScan. The FL3-area data were analyzed with the ModFit software for determination of the percent cells in each phase of the cell cycle. In some cases, fluorescein isothiocyanate (FITC)-conjugated antibody staining was conducted prior to PI treatment and surface staining was analyzed as a function of cell cycle phase. Apoptosis was analyzed by staining with annexin-V directly conjugated with either FITC or RPE and by sub-G0 analysis of DNA staining. Expression levels without treatment are shown as shaded peaks, IFNγ treated cell expression is plotted by a thin line while the level of expression on TSA treated cells is represented by a heavy line. Isotype controls were analyzed and, in each case, fell on or below the levels shown for control cells. MC and Colon 26 treatments are shown for 50 nM TSA for 48 hours, while J558 treatment is for 25 nM TSA for 24 hours. All IFNγ treatments were 100 U/ml for the same length of time as the corresponding TSA treatment. The percent of cells staining positive for MHC class II or CD40 expression is indicated below each histogram. Since all cells were positive for MHC class I expression, the number under the histogram represents -fold change of expression calculated from the mean channel-shift after treatment relative to untreated cells. Data are representative of at least three independent experiments. Of the 13 markers analyzed on J558 cells, only class I, II and CD40 were enhanced, while levels of several non-expressed antigens were not elicited (including CD25, B7 integrin, CD40L, H2K^k and IA^k) while other markers, which were expressed, were not altered (including CD44, CD54, CD80, CD86 and CD119) by TSA treatment. […] The highest expression (21-fold induction) was achieved on J558 cells after 24 hr by 25 nM TSA. […] The separation of control and IFNγ curves in the CD40, J558 experiment depicted in FIG. 8 represents a mean channel fluorescence difference of only 1.3 and was not seen on independent replicates of the experiment.
TSA has been described as a cell cycle inhibitor that induces both G1 and especially G2/M blocks (Bestor, 1998, Nature, 393:311-312; Yoshida et al., 1988, Exp. Cell Res. 177:122-131). MHC class II, but not class I, has been reported (Inokoshi et al., 1999, Biochem. Biophys. Res. Commun., 256:372-376; Monroe et al., 1983, J. Immunol., 130:626-631) to be regulated differentially during the cell cycle. Therefore the cell cycle of the cell lines used in the present invention was analyzed by DNA staining and flow cytometry with each of the treatment conditions under study. […] Two additional methods were used to analyze cell cycle effects on MHC expression. Since it has been reported that TSA arrests cell cycle mainly in G2/M, and class II has been reported to accumulate in G2/M (Monroe et al., 1983, supra), experiments were designed to essentially arrest 100% of J558 cells in G2/M with nocodazole. […] From the above experiments, it can be concluded that DAIs have specific effects on MHC class I and II, and CD40 gene expression, which is likely not a result of its action on the cell cycle.

MHC class I = assay: Cell surface MHC class I by flow cytometry on Colon 26 and J558; format: cell-based, mouse
Experimental: To determine the effect of TSA on cell surface protein expression, the J558 cell line was subjected to flow cytometric analyses as follows. Flow cytometric analyses were conducted by standard methods using cells fixed with 1.0% paraformaldehyde and analyzed on the FACScan (Becton Dickinson). Cell cycle analyses were carried out by flow cytometry with PI staining of genomic DNA. Cells were fixed and permeablized in methanol, treated with RNaseA and analyzed for DNA content by determination of FL3-area on the FACScan. The FL3-area data were analyzed with the ModFit software for determination of the percent cells in each phase of the cell cycle. In some cases, fluorescein isothiocyanate (FITC)-conjugated antibody staining was conducted prior to PI treatment and surface staining was analyzed as a function of cell cycle phase. Apoptosis was analyzed by staining with annexin-V directly conjugated with either FITC or RPE and by sub-G0 analysis of DNA staining. Expression levels without treatment are shown as shaded peaks, IFNγ treated cell expression is plotted by a thin line while the level of expression on TSA treated cells is represented by a heavy line. Isotype controls were analyzed and, in each case, fell on or below the levels shown for control cells. […] Since all cells were positive for MHC class I expression, the number under the histogram represents -fold change of expression calculated from the mean channel-shift after treatment relative to untreated cells. […] Of the 13 markers analyzed on J558 cells, only class I, II and CD40 were enhanced, while levels of several non-expressed antigens were not elicited (including CD25, B7 integrin, CD40L, H2K^k and IA^k) while other markers, which were expressed, were not altered (including CD44, CD54, CD80, CD86 and CD119) by TSA treatment. […] The separation of control and IFNγ curves in the CD40, J558 experiment depicted in FIG. 8 represents a mean channel fluorescence difference of only 1.3 and was not seen on independent replicates of the experiment. […]

[2] = Colon 26, 60 cycles, 100 U/ml IFNγ for 24 hours, TSA (12 and 48 hours)
[3] = J558, TSA 25 nM for 24 hours, IFNγ
[4] = Colon 26 and J558, flow cytometry

Molecule | fold increase in expression of DR (HLA-DRα mRNA) | levels of mRNA for HLA-DRα (DR) (HLA-DRα mRNA) | CD40 mRNA fold increase (CD40 mRNA; [2]) | CD40 mRNA fold increase (CD40 mRNA; [3]) | mean channel fluorescence difference between control and IFNγ curves, CD40 (CD40; J558, IFNγ 100 U/ml 24 hours, not seen on independent replicates) | expression of MHC class II protein on the cell surface [1] | MHC class I expression, response to IFNγ (MHC class I; J558, IFNγ 100 U/ml) | expression of CD40 on cell surface (CD40; [4]) | cells positive for class II expression ([1]; Colon 26, TSA concentration used in FIG. 8 (50 nM for 48 hours)) | MHC class II positive cells ([1]; J558, G2/M arrest experiment with nocodazole, data not shown) | cells positive for class II expression ([1]; J558, TSA concentration used in FIG. 8 (25 nM for 24 hours)) | induction of cell surface MHC class II, mean channel fluorescence ([1]; J558 cells, 24 hr, 25 nM TSA, highest expression) | MHC class I expression on cell surface (MHC class I; [4]) | class I expression as a function of cell cycle phase (MHC class I; J558, double staining with PI and antibody to class I)
IFNγ: gamma-interferon, cytokine used as comparator at 100 U/ml | did not stimulate | cannot be induced | undetectable | did not change | 1.3 | did not induce | unresponsive |  |  |  |  |  |  | 
CC(/C=C/C(=O)NO)=C\[C@@H](C)C(=O)c1ccc(N(C)C)cc1 [TSA, Trichostatin A] | 108 fold | substantial increase | 147 fold | 161 fold |  | significantly induced |  | induced expression | 53% | 75% | 87% | 21 fold | enhanced | induced expression throughout the cell cycle
